Measured values reported in patent US8927501B2, “αvβ6 peptide ligands and their uses” (priority 2005, dated 2015).
Where a SMILES comes first, the peptide text is derived from it. Where no end group is shown, it is not given here. The star is where a group is joined. Biotin = O=C1N[C@H]2[C@H](CS[C@H]2CCCCC(=O)*)N1; Ahx = NCCCCCC(=O)O

How the values were obtained:
[1] = molecular target: T1, αvβ6 (Homo sapiens, UniProt P06756+P18564); test: Cell adhesion assay: αvβ6-dependent adhesion of VB6 cells to LAP; type: cell-based
T1 construct: endogenous in cells; host or cells: VB6 human oral squamous cell carcinoma

[2] = tested on: A375Ppuro; type: cell-based, human
[3] = tested on: A375Pβ6puro; type: cell-based, human
[4] = molecular target: T2, rsαvβ6 (Homo sapiens, UniProt P06756+P18564); test: biochemical; type: binding
[5] = molecular target: αvβ6 (UniProt P18564+P43406); test: cell-based; parameters: species or system mouse
[6] = molecular target: T2, rsαvβ6; test: biochemical; type: binding; remark: listed apart in the source

T2 sequence (P06756 31-992 limits assumed): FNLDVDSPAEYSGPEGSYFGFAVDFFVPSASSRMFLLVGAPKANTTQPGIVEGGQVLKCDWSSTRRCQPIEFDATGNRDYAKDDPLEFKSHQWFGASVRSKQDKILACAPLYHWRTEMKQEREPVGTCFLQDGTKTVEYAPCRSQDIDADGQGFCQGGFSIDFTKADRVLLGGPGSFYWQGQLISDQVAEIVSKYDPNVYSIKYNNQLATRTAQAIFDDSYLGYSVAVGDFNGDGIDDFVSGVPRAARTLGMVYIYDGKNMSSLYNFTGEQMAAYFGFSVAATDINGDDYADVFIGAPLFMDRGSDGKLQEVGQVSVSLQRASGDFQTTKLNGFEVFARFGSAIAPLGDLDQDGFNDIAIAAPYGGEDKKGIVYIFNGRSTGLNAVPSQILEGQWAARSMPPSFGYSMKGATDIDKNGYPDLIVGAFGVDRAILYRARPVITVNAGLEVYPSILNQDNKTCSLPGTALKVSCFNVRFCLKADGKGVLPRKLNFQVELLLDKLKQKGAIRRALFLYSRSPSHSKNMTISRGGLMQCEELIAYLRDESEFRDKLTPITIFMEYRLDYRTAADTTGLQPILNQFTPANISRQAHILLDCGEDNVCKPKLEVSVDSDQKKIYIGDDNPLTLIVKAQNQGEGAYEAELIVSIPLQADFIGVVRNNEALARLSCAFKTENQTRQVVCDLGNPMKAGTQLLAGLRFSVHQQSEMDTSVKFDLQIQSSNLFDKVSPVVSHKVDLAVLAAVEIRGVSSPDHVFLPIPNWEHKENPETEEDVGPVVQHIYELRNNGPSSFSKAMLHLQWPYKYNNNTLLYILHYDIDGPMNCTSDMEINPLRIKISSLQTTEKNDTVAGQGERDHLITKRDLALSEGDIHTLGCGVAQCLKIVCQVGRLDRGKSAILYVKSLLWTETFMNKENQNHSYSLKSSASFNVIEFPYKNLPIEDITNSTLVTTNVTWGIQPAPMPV
T2 sequence (P18564 22-709 limits assumed): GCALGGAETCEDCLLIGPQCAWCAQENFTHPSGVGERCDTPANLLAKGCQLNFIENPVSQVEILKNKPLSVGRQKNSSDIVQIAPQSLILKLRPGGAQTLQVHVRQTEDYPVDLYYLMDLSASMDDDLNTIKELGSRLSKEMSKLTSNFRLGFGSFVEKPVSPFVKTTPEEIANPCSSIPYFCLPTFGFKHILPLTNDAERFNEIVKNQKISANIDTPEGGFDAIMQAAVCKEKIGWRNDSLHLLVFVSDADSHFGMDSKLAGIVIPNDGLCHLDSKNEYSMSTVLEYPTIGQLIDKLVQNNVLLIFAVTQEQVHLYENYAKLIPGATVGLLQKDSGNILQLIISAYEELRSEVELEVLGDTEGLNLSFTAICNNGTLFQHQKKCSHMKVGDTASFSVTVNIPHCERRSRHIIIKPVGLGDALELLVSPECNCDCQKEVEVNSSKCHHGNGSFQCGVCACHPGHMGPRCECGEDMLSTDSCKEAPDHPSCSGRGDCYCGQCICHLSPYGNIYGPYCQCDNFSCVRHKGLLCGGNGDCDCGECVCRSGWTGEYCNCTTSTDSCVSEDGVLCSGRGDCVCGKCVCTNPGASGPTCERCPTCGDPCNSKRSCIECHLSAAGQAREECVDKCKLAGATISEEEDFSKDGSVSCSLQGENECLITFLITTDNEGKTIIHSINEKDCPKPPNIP
T1 sequence (P06756 31-1048): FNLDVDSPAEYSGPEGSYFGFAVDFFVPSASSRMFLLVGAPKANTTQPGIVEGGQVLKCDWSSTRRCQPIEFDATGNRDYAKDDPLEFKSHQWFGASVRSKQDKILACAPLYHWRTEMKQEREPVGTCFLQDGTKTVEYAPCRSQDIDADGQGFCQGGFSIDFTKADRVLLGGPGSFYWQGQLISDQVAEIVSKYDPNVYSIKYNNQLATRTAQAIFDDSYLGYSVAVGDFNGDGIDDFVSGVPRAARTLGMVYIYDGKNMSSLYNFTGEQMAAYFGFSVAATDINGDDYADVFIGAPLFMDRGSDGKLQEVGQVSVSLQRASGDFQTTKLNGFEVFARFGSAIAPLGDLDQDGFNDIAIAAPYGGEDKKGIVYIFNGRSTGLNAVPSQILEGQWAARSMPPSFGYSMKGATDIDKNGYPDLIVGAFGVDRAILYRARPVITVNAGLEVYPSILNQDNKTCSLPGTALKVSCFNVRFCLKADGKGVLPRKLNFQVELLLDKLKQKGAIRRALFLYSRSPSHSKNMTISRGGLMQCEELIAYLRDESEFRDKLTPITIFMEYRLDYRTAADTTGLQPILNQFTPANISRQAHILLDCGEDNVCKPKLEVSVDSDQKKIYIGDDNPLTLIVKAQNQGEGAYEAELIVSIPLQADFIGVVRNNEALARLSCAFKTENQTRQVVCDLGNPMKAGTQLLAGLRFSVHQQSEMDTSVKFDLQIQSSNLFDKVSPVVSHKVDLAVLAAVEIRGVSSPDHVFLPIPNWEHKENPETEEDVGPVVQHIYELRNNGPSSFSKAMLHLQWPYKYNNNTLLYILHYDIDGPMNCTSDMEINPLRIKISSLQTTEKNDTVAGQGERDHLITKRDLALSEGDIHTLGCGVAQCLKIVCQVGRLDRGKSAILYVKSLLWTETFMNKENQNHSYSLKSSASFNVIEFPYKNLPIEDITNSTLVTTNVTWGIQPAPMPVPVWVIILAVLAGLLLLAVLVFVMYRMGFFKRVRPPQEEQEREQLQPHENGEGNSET
T1 sequence (P18564 22-788): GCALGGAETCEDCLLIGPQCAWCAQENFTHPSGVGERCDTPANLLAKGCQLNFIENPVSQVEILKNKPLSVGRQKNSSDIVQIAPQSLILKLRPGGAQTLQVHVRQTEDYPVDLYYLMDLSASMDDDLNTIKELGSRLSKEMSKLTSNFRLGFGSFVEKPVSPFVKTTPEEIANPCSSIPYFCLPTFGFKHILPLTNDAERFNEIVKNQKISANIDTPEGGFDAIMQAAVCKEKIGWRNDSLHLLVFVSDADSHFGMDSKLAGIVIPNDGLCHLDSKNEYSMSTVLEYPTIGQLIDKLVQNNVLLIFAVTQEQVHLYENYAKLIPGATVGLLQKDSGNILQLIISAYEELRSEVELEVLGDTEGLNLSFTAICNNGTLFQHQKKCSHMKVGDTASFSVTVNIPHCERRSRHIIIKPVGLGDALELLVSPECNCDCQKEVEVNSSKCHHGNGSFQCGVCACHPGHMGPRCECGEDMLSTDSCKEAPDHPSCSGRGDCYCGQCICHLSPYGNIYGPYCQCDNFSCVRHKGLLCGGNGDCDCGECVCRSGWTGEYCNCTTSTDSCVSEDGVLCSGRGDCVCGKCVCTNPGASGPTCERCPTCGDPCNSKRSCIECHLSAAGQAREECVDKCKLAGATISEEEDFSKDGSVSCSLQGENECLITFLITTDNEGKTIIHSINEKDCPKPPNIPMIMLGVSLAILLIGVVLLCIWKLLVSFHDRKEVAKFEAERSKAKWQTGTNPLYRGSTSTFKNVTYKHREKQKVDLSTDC

For CC(C)C[C@H](NC(=O)[C@H](Cc1cnc[nH]1)NC(=O)[C@H](CCCNC(=N)N)NC(=O)[C@H](C)NC(=O)[C@H](Cc1cnc[nH]1)NC(=O)[C@@H](NC(=O)[C@@H](NC(=O)[C@@H](NC(=O)[C@H](CC(C)C)NC(=O)[C@H](Cc1cnc[nH]1)NC(=O)[C@H](C)NC(=O)[C@H](CC(C)C)NC(=O)[C@H](CC(=O)O)NC(=O)CNC(=O)[C@H](CCCNC(=N)N)NC(=O)[C@H](C)NC(=O)[C@H](CO)NC(=O)[C@H](C)NC(=O)[C@@H](NC(=O)[C@@H](N)Cc1ccc(O)cc1)[C@@H](C)O)[C@@H](C)O)[C@@H](C)O)[C@@H](C)O)C(=O)O [A20FMDV1], the IC50 [1] was 38.2 ± 31.1 µM, the “binding to A375Ppuro” value [2] was “did not bind to A375Ppuro” and the “binding to A375Pβ6puro” value [3] was “binding to A375Pβ6puro at 1 μM”.

For CC(C)C[C@H](NC(=O)[C@H](CC(=O)O)NC(=O)CNC(=O)[C@H](CCCNC(=N)N)NC(=O)[C@H](CC(C)C)NC(=O)[C@H](CC(N)=O)NC(=O)[C@@H]1CCCN1C(=O)[C@@H](NC(=O)[C@H](C)NC(=O)[C@@H](N)CC(N)=O)C(C)C)C(=O)N[C@@H](CCC(N)=O)C(=O)N[C@H](C(=O)N[C@@H](CC(C)C)C(=O)N[C@@H](C)C(=O)N[C@@H](CCC(N)=O)C(=O)N[C@@H](CCCCN)C(=O)N[C@H](C(=O)N[C@@H](C)C(=O)N[C@@H](CCCNC(=N)N)C(=O)N[C@H](C(=O)O)[C@@H](C)O)C(C)C)C(C)C [A20FMDV2], the “binding to A375Ppuro” value [2] was “only at 10 μM”, the “binding to A375Pβ6puro” value [3] was “observed at 10 μM, 1μM, 0.1 μM, 0.01 μM and 0.00 μM” and the “differential binding A375Pβ6puro versus A375Ppuro” value [3] was “four orders of magnitude”.

In the case of CC[C@H](C)[C@H](NC(=O)[C@@H](NC(=O)[C@H](C)NC(=O)[C@H](CC(C)C)NC(=O)[C@H](CC(=O)O)NC(=O)CNC(=O)[C@H](CCCNC(=N)N)NC(=O)[C@H](CCCNC(=N)N)NC(=O)CNC(=O)[C@@H](NC(=O)[C@@H](NC(=O)[C@H](Cc1ccccc1)NC(=O)CN)[C@@H](C)O)[C@@H](C)O)[C@@H](C)O)C(=O)N[C@@H](Cc1cnc[nH]1)C(=O)NCC(=O)N[C@@H](CCSC)C(=O)N[C@@H](CC(N)=O)C(=O)N[C@@H](CCCNC(=N)N)C(=O)N1CCC[C@H]1C(=O)N[C@@H](Cc1ccccc1)C(=O)O [A20LAP], the IC50 [1] is reported as 28.7 ± 11 µM, the “effect on VB6 adhesion to LAP” value [1] is reported as “completely blocks cell adhesion” and the “binding of biotinylated peptide to immobilised rsαvβ6” value (“binding of biotinylated peptide” below) [4] is reported as “bound more than A20FMDV1”. For the same compound, the “binding to A375Ppuro” value [2] was “bound to both cell lines at 10 μM and 1 μM”, the “adhesion of 3T3β6.19 to LAP, % of control cell adhesion” value (“adhesion … % of control cell adhesion” for short) [5] was 32±7% and the “binding to A375Pβ6puro” value [3] was “bound to both cell lines at 10 μM and 1 μM”.

In the case of CC(C)C[C@H](NC(=O)[C@H](CC(=O)O)NC(=O)CNC(=O)[C@H](CCCNC(=N)N)NC(=O)[C@H](CC(C)C)NC(=O)[C@H](CC(N)=O)NC(=O)[C@@H]1CCCN1C(=O)[C@@H](NC(=O)[C@H](C)NC(=O)[C@H](CC(N)=O)NC(=O)CCCCCNC(=O)CCCC[C@@H]1SC[C@@H]2NC(=O)N[C@@H]21)C(C)C)C(=O)N[C@@H](CCC(N)=O)C(=O)N[C@H](C(=O)N[C@@H](CC(C)C)C(=O)N[C@@H](C)C(=O)N[C@@H](CCC(N)=O)C(=O)N[C@@H](CCCCN)C(=O)N[C@H](C(=O)N[C@@H](C)C(=O)N[C@@H](CCCNC(=N)N)C(=O)N[C@H](C(=O)O)[C@@H](C)O)C(C)C)C(C)C [B-A20FMDV2], the “binding to A375Ppuro” value [2] is reported as “only low levels of binding”, the “binding to A375Pβ6 in the presence of 63G9” value (from here on “binding to A375Pβ6 … of 63G9”) [3] is reported as “completely abolished” and the “binding to A375Pβ6 in the presence of control IgG” value (from here on “binding … of control IgG”) [3] is reported as “bound strongly”. The “binding to A375Pβ6puro” value [3] was “high levels of binding at concentrations as low as 1 nM”.

For CC(C)C[C@@H]1NC(=O)[C@H](CC(=O)O)NC(=O)CNC(=O)[C@H](CCCNC(=N)N)NC(=O)[C@H](CC(C)C)NC(=O)[C@H](CC(N)=O)NC(=O)[C@@H]2CCCN2C(=O)[C@@H](NC(=O)[C@@H](CCCCN)NC(=O)[C@@H](Cc2ccc(O)cc2)NC(=O)[C@@H](CCC(=O)O)NC(=O)CCCCCNC(=O)CCCC[C@@H]2SC[C@@H]3NC(=O)N[C@@H]32)CSSC[C@@H](C(=O)N[C@@H](CCCNC(=N)N)C(=O)N[C@H](C(=O)N[C@@H](CCCCN)C(=O)O)[C@@H](C)O)NC(=O)[C@H](C(C)C)NC(=O)[C@H](CCCCN)NC(=O)[C@H](CCC(N)=O)NC(=O)[C@H](C)NC(=O)[C@H](CC(C)C)NC(=O)[C@H](C(C)C)NC(=O)[C@H](CCC(N)=O)NC1=O [B-DBD1], the EC50 [4] was 0.69 nM, the “binding of biotinylated peptide” value [4] was “concentration-dependent binding” and the “binding to A375Ppuro” value [2] was “only low levels of binding”. For the same compound, the “binding to A375Pβ6 … of 63G9” value [3] was “greatly reduced”, the “binding … of control IgG” value [3] was “bound strongly” and the “binding to A375Pβ6puro” value [3] was “high levels of binding at concentrations as low as 1 nM”.

In the case of CC(C)C[C@@H]1NC(=O)[C@H](CC(=O)O)NC(=O)CNC(=O)[C@H](CCCNC(=N)N)NC(=O)[C@H](CC(C)C)NC(=O)[C@H](CC(N)=O)NC(=O)[C@@H]2CCCN2C(=O)[C@H](C(C)C)NC(=O)[C@H](Cc2ccc(O)cc2)NC(=O)[C@@H](NC(=O)CCCCCNC(=O)CCCC[C@@H]2SC[C@@H]3NC(=O)N[C@@H]32)CSSC[C@@H](C(=O)O)NC(=O)[C@H](CCCCN)NC(=O)[C@H](C)NC(=O)[C@H](C(C)C)NC(=O)[C@H](CCCCN)NC(=O)[C@H](CCC(N)=O)NC(=O)[C@H](C)NC(=O)[C@H](CC(C)C)NC(=O)[C@H](C(C)C)NC(=O)[C@H](CCC(N)=O)NC1=O [B-DBD2], the EC50 [4] is reported as 1.7 nM, the “binding of biotinylated peptide” value [4] is reported as “concentration-dependent binding” and the “binding to A375Ppuro” value [2] is reported as “only low levels of binding”. For the same compound, the “binding to A375Pβ6 … of 63G9” value [3] was “completely abolished”, the “binding … of control IgG” value [3] was “bound strongly” and the “binding to A375Pβ6puro” value [3] was “high levels of binding at concentrations as low as 1 nM”.

In the case of CC[C@H](C)[C@H](NC(=O)[C@@H](NC(=O)[C@H](C)NC(=O)[C@H](CC(C)C)NC(=O)[C@H](CC(=O)O)NC(=O)CNC(=O)[C@H](CCCNC(=N)N)NC(=O)[C@@H](N)CCCNC(=N)N)[C@@H](C)O)C(=O)N[C@@H](Cc1c[nH]cn1)C(=O)O [DD1], the IC50 [5] is reported as 216 µM and the “adhesion … % of control cell adhesion” value [5] is reported as 57±4%.

With CC[C@H](C)[C@H](NC(=O)[C@@H](NC(=O)[C@H](C)NC(=O)[C@H](CC(C)C)NC(=O)[C@H](CC(=O)O)NC(=O)CNC(=O)[C@H](CCCNC(=N)N)NC(=O)[C@H](CCCNC(=N)N)NC(=O)CNC(=O)[C@@H](NC(=O)[C@@H](NC(=O)[C@@H](N)Cc1ccccc1)[C@@H](C)O)[C@@H](C)O)[C@@H](C)O)C(=O)O [DD2] (H-FTTGRRGDLATI-OH; N-terminus and C-terminus assumed) the “effect on VB6 adhesion to LAP” value [1] was “little effect” and the IC50 [6] was 30.9 nM.

In the case of CC[C@H](C)[C@H](NC(=O)[C@@H](NC(=O)[C@H](C)NC(=O)[C@H](CC(C)C)NC(=O)[C@H](CC(=O)O)NC(=O)CNC(=O)[C@H](CCCNC(=N)N)NC(=O)[C@H](CCCNC(=N)N)NC(=O)CNC(=O)[C@@H](N)[C@@H](C)O)[C@@H](C)O)C(=O)O [DD3] (H-TGRRGDLATI-OH; N-terminus and C-terminus assumed), the “effect on VB6 adhesion to LAP” value [1] is reported as “little effect”, the IC50 [6] is reported as 22.6 nM and the “adhesion … % of control cell adhesion” value [5] is reported as 79±22%.

In the case of CC(C)C[C@H](NC(=O)[C@H](CC(=O)O)NC(=O)CNC(=O)[C@H](CCCNC(=N)N)NC(=O)[C@H](CC(C)C)NC(=O)[C@H](CC(N)=O)NC(=O)[C@@H]1CCCN1C(=O)[C@@H](N)C(C)C)C(=O)N[C@@H](CCC(N)=O)C(=O)N[C@H](C(=O)N[C@@H](CC(C)C)C(=O)N[C@@H](C)C(=O)O)C(C)C [DD19], the “VB6 adhesion to LAP in the presence of peptide” value [1] is reported as “the same as adhesion in the absence of peptide”, the IC50 [6] is reported as 85 nM and the IC50 [5] is reported as 190 µM.

CC(C)C[C@H](NC(=O)[C@H](CC(=O)O)NC(=O)CNC(=O)[C@H](CCCNC(=N)N)NC(=O)[C@H](CC(C)C)NC(=O)[C@H](CC(N)=O)NC(=O)[C@@H]1CCCN1C(=O)[C@@H](NC(=O)[C@H](C)NC(=O)[C@@H](N)CC(N)=O)C(C)C)C(=O)N[C@@H](CCC(N)=O)C(=O)N[C@@H](C(=O)N[C@@H](CC(C)C)C(=O)N[C@@H](C)C(=O)N[C@@H](CCC(N)=O)C(=O)N[C@@H](CCCCN)C(=O)N[C@@H](C(=O)N[C@@H](C)C(=O)N[C@@H](CCCNC(=N)N)C(=O)N[C@H](C(=O)O)[C@@H](C)O)C(C)C)C(C)C [DV1217] was tested, and the “binding to A375Ppuro” value [2] was “did not bind noticeably”, the “binding to A375Pβ6puro” value [3] was “bound to A375Pβ6 at 10 μM and at 1 μM” and the “loss of anti-αvβ6 potency versus A20FMDV2” value [3] was 1000 fold.

With CC(C)C[C@H](NC(=O)[C@H](CC(=O)O)NC(=O)CNC(=O)[C@H](CCCNC(=N)N)NC(=O)[C@H](C)NC(=O)[C@H](C)NC(=O)[C@H](C)NC(=O)[C@@H](N)CO)C(=O)N[C@@H](CCC(=O)O)C(=O)N[C@@H](CCC(N)=O)C(=O)N[C@@H](CC(C)C)C(=O)N[C@H](C(=O)N[C@@H](CO)C(=O)N[C@@H](CC(C)C)C(=O)N[C@@H](CC(C)C)C(=O)N[C@@H](CCC(N)=O)C(=O)N[C@@H](CC(N)=O)C(=O)N[C@@H](CC(N)=O)C(=O)N[C@H](C(=O)N[C@@H](CC(N)=O)C(=O)O)C(C)C)[C@@H](C)O [P-INK] (H-SAAARGDLEQLTSLLQNNVN-OH; N-terminus assumed) the “inhibition of αvβ6-dependent adhesion / binding affinity to αvβ6” value [5] was “inhibited αvβ6-dependent adhesion”.

For “Biotin-εAhx-eykCKLVGALQPDNVLQRCRTK [B-Ran, reference compound]”, the “binding of biotinylated peptide” value [4] was “did not show any binding”, the “binding to A375Ppuro” value [2] was “did not bind” and the “binding to A375Pβ6 … of 63G9” value [3] was “did not bind”. For the same compound, the “binding … of control IgG” value [3] was “did not bind” and the “binding to A375Pβ6puro” value [3] was “did not bind”.

SAAARGDLEQLTSLLQNNVNV [P18-INK] was tested, and the “inhibition of αvβ6-dependent adhesion / binding affinity to αvβ6” value [5] was “significantly greater than that of DD19”.

In the case of “{Biotin-Ahx}-PGRTFHRFGMGAITRTGNDL [B-A20LAP-Ran, reference compound]”, the “binding of biotinylated peptide” value [4] is reported as “did show binding at 10 μM and 1 μM”.
